Source: patent publication US20240239779A1, “HERBICIDAL COMPOUNDS” (SYNGENTA CROP PROTECTION AG, priority 2021, published 2024)

How the values were obtained:
Type in all cases: in vivo
Settings in all cases: 250 g/ha, evaluated after 13 days, 100=total damage to plant, 0=no damage to plant
LOLPE [1] = assay: Post-emergence biological efficacy
Protocol: (§1) Seeds of weeds and/or crops were sown in standard soil in pots. After cultivation for 14 days under controlled conditions in a glasshouse (at 24/19° C., day/night; 16 hours light), the plants were sprayed with an aqueous spray solution derived from the formulation of the technical active ingredient in a small amount of acetone and a special solvent and emulsifier mixture referred to as IF50 (11.12% Emulsogen EL360 TM+44.44% N-methylpyrrolidone+44.44% Dowanol DPM glycol ether), to create a 50 g/l solution which was then diluted using 0.2% Genapol XO80 as diluent to give the desired final dose of test compound.
(§2) The test plants were then grown under controlled conditions in the glasshouse (at 24/18° C., day/night; 15 hours light; 50% humidity)and watered twice daily. After 13 days the test was evaluated (100=total damage to plant; 0=no damage to plant).

EPHHL [2] = assay: Post-emergence biological efficacy
Protocol: as §1, §2

IPOHE [3] = assay: Post-emergence biological efficacy
Protocol: as §1, §2

ELEIN = assay: Post-emergence biological efficacy
Protocol: as §1, §2

AMAPA [4] = assay: Post-emergence biological efficacy
Protocol: as §1, §2

CHEAL = assay: Post-emergence biological efficacy
Protocol: as §1, §2

ECHCG [5] = assay: Post-emergence biological efficacy
Protocol: as §1, §2

DIGSA = assay: Post-emergence biological efficacy
Protocol: as §1, §2

SETFA [6] = assay: Post-emergence biological efficacy
Protocol: as §1, §2

LOLPE [7] = assay: Pre-emergence biological efficacy
Protocol: as §1, with “one day” for “14 days”
(§3) The test plants were then grown under controlled conditions in the glasshouse (at 24/18° C., day/night; 15 hours light; 50% humidity) and watered twice daily. After 13 days the test was evaluated (100=total damage to plant; 0=no damage to plant).

EPHHL [8] = assay: Pre-emergence biological efficacy
Protocol: as §1, with “one day” for “14 days”
as §3

IPOHE [9] = assay: Pre-emergence biological efficacy
Protocol: as §1, with “one day” for “14 days”
as §3

AMAPA [10] = assay: Pre-emergence biological efficacy
Protocol: as §1, with “one day” for “14 days”
as §3

ECHCG [11] = assay: Pre-emergence biological efficacy
Protocol: as §1, with “one day” for “14 days”
as §3

SETFA [12] = assay: Pre-emergence biological efficacy
Protocol: as §1, with “one day” for “14 days”
as §3

CCOC(=O)C1(C)CC(c2nc(-n3c(=O)cc(C(F)(F)F)n(C)c3=O)c(F)cc2Cl)=NO1 (stereo not drawn) [Compound 14, ethyl 3-[3-chloro-5-fluoro-6-[3-methyl-2,6-dioxo-4-(trifluoromethyl)pyrimidin-1-yl]-2-pyridyl]-5-methyl-4H-isoxazole-5-carboxylate]
100: damage to plant, LOLPE (LOLPE [1]) | damage to plant, EPHHL (EPHHL [2]) | damage to plant, IPOHE (IPOHE [3]) | damage to plant, ELEIN (ELEIN) | damage to plant, AMAPA (AMAPA [4]) | damage to plant, CHEAL (CHEAL) | damage to plant, ECHCG (ECHCG [5]) | damage to plant, DIGSA (DIGSA) | damage to plant, SETFA (SETFA [6]) | damage to plant, EPHHL (EPHHL [8]) | damage to plant, IPOHE (IPOHE [9]) | damage to plant, AMAPA (AMAPA [10]) | damage to plant, ECHCG (ECHCG [11]) | damage to plant, SETFA (SETFA [12])
90: damage to plant, LOLPE (LOLPE [7])
